This passage reports T/C results from PubChem BioAssay AID270 (DTP/NCI, 2004).

The assay has as its system BDF1 mice, s.c. Lewis lung carcinoma, T/C %. Put plainly: NCI In Vivo Anticancer Drug Screen. Data for tumor model Lewis Lung Carcinoma (subcutaneous) in B6D2F1 (BDF1) mice. The method, boiled down:
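First, mice carry a transplantable tumor. Next, groups receive either compound or vehicle. Finally, survival or tumor dimensions in the dosed animals are divided by the corresponding control figure.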

[1] abbreviates: endpoint: median survival time, dose: 12.5 mg/kg/injection, schedule: Q01DX009 (ip), vehicle: Klucel (hydroxypropylcellulose) (HPC), higher = longer survival.
Setting [2] is: endpoint: median survival time, dose: 25.0 mg/kg/injection, schedule: Q01DX009 (ip), vehicle: Klucel (hydroxypropylcellulose) (HPC), higher = longer survival.
Where [3] appears, read: endpoint: median survival time, dose: 50.0 mg/kg/injection, schedule: Q01DX009 (ip), vehicle: Klucel (hydroxypropylcellulose) (HPC), higher = longer survival.
The mark [4] stands for this setting: endpoint: median survival time, dose: 100.0 mg/kg/injection, schedule: Q01DX009 (ip), vehicle: Klucel (hydroxypropylcellulose) (HPC), higher = longer survival.
Setting [5] is: endpoint: median survival time, dose: 2.5 mg/kg/injection, schedule: Q01DX009 (ip), vehicle: Klucel (hydroxypropylcellulose) (HPC), higher = longer survival.
[6] abbreviates: endpoint: median survival time, dose: 10.0 mg/kg/injection, schedule: Q01DX009 (ip), vehicle: Klucel (hydroxypropylcellulose) (HPC), higher = longer survival.
[7] abbreviates: endpoint: median survival time, dose: 0.62 mg/kg/injection, schedule: Q01DX009 (ip), vehicle: saline, higher = longer survival.
Setting [8] is: endpoint: median survival time, dose: 2.5 mg/kg/injection, schedule: Q01DX009 (ip), vehicle: saline, higher = longer survival.
The mark [9] stands for this setting: endpoint: median survival time, dose: 50.0 mg/kg/injection, schedule: Q01DX009 (ip), vehicle: saline with Tween-80, higher = longer survival.

Structures are written as SMILES. Where “and” joins values, the source holds several entries; their conditions need not be identical. Identical values can stand only once. Inconclusive results are not listed.

Regarding `C1=CC2(OCCO2)C2CC=CC3(OCCO3)C2C1` (stereo not drawn), the T/C was 88 % of control (endpoint: median survival time, dose: 6.25 mg/kg/injection, schedule: Q01DX009 (ip), vehicle: Klucel (hydroxypropylcellulose) (HPC), higher = longer survival); 100 % of control under setting [1]; 95 % of control and 97 % of control under setting [2]; 93 % of control under setting [3]; 106 % of control under setting [4].

As for `OC1CC2CCC(C1)N2CCCN1c2ccccc2Sc2ccc(Cl)cc21` (stereo not drawn), the T/C is 95 % of control under setting [1], 96 % of control under setting [2] and 99 % of control under setting [3].

On to `CCCn1cnc2c(SCc3ccccc3Cl)nc(N)nc21`, for which the T/C is 66 % of control (endpoint: mean tumor weight, dose: 25.0 mg/kg/injection, schedule: Q01DX011 (ip), vehicle: other, higher = larger tumour); 102 % of control (endpoint: mean tumor weight, dose: 50.0 mg/kg/injection, schedule: Q01DX011 (ip), vehicle: other, higher = larger tumour); 89 % of control (endpoint: mean tumor weight, dose: 100.0 mg/kg/injection, schedule: Q01DX011 (ip), vehicle: other, higher = larger tumour); 65 % of control (endpoint: mean tumor weight, dose: 200.0 mg/kg/injection, schedule: Q01DX011 (ip), vehicle: other, higher = larger tumour).

On to `Cc1c2cc3c(c1O)C(=O)CC(O3)c1ccc(O)c(c1)-c1ccc(O)c(c1)C(=O)OCC1OC(O2)C(O)C(O)C1O` (stereo not drawn), for which the T/C was 112 % of control (endpoint: median survival time, dose: 0.13 mg/kg/injection, schedule: Q01DX009 (ip), vehicle: Klucel (hydroxypropylcellulose) (HPC), higher = longer survival); 102 % of control (endpoint: median survival time, dose: 0.25 mg/kg/injection, schedule: Q01DX009 (ip), vehicle: Klucel (hydroxypropylcellulose) (HPC), higher = longer survival); 100 % of control (endpoint: median survival time, dose: 0.5 mg/kg/injection, schedule: Q01DX009 (ip), vehicle: Klucel (hydroxypropylcellulose) (HPC), higher = longer survival); 101 % of control (endpoint: median survival time, dose: 1.0 mg/kg/injection, schedule: Q01DX009 (ip), vehicle: Klucel (hydroxypropylcellulose) (HPC), higher = longer survival).

As to `CCOC(=O)C(C)(C)Br`, the T/C by setting is: (endpoint: mean tumor weight, dose: 75.0 mg/kg/injection, schedule: Q01DX011 (ip), vehicle: other, higher = larger tumour) 90 % of control; (endpoint: mean tumor weight, dose: 150.0 mg/kg/injection, schedule: Q01DX011 (ip), vehicle: other, higher = larger tumour) 114 % of control; (endpoint: mean tumor weight, dose: 300.0 mg/kg/injection, schedule: Q01DX011 (ip), vehicle: other, higher = larger tumour) 98 % of control; (endpoint: mean tumor weight, dose: 500.0 mg/kg/injection, schedule: Q01DX011 (ip), vehicle: other, higher = larger tumour) 68 % of control; (endpoint: mean tumor weight, dose: 600.0 mg/kg/injection, schedule: Q01DX011 (ip), vehicle: other, higher = larger tumour) 102 % of control; (endpoint: mean tumor weight, dose: 750.0 mg/kg/injection, schedule: Q01DX011 (ip), vehicle: other, higher = larger tumour) 37 % of control.

For `C[C@]12CC[C@H](O)C[C@@]1(O)CC[C@@H]1[C@@H]2CC[C@]2(C)[C@@H](c3ccc(=O)oc3)CC[C@]12O`, the T/C by setting is: (endpoint: median survival time, dose: 1.25 mg/kg/injection, schedule: Q01DX009 (ip), vehicle: Klucel (hydroxypropylcellulose) (HPC), higher = longer survival) 97 % of control; under setting [5], 98 % of control; under setting [6], 104 % of control; (endpoint: median survival time, dose: 20.0 mg/kg/injection, schedule: Q01DX009 (ip), vehicle: Klucel (hydroxypropylcellulose) (HPC), higher = longer survival) 113 % of control.

As to `O=C(NO)c1ccccc1O`, the T/C reads like this: (endpoint: median survival time, dose: 6.25 mg/kg/injection, schedule: Q01DX009 (ip), vehicle: saline, higher = longer survival) 109 % of control; (endpoint: median survival time, dose: 12.5 mg/kg/injection, schedule: Q01DX009 (ip), vehicle: saline, higher = longer survival) 106 % of control; (endpoint: median survival time, dose: 25.0 mg/kg/injection, schedule: Q01DX009 (ip), vehicle: saline, higher = longer survival) 108 % of control; (endpoint: median survival time, dose: 50.0 mg/kg/injection, schedule: Q01DX009 (ip), vehicle: saline, higher = longer survival) 103 % of control; (endpoint: median survival time, dose: 400.0 mg/kg/injection, schedule: Q01DX009 (ip), vehicle: saline with Tween-80, higher = longer survival) 113 % of control.

For the compound `COC1C(O)=C2C(=O)OC(C)(O)/C=C/C=C\C=C/C=C/C(c3ccccc3)NC(=O)/C=C/C=C/C=C/C=C/C2(C)C1O` (stereo not drawn), the T/C (endpoint: median survival time, dose: 0.12 mg/kg/injection, schedule: Q01DX009 (ip), vehicle: saline, higher = longer survival) is 92 % of control; the T/C (endpoint: median survival time, dose: 0.25 mg/kg/injection, schedule: Q01DX009 (ip), vehicle: saline, higher = longer survival) was 95 % of control; the T/C (endpoint: median survival time, dose: 0.5 mg/kg/injection, schedule: Q01DX009 (ip), vehicle: saline, higher = longer survival) is 100 % of control; the T/C under setting [7] is 113 % of control; the T/C under setting [8] is 91 % of control.

Regarding `CC(=O)C(O)N1C(=O)C=CC1=O` (stereo not drawn), the T/C runs as follows: (endpoint: median survival time, dose: 0.31 mg/kg/injection, schedule: Q01DX009 (ip), vehicle: saline, higher = longer survival) 100 % of control; under setting [7], 98 % of control and 105 % of control and 119 % of control; (endpoint: median survival time, dose: 1.25 mg/kg/injection, schedule: Q01DX009 (ip), vehicle: saline, higher = longer survival) 107 % of control (2×) and 120 % of control; (endpoint: median survival time, dose: 1.25 mg/kg/injection, schedule: Q02DX009 (ip), vehicle: saline, higher = longer survival) 114 % of control; under setting [8], 90 % of control and 107 % of control; (endpoint: median survival time, dose: 2.5 mg/kg/injection, schedule: Q02DX009 (ip), vehicle: saline, higher = longer survival) 104 % of control. Moreover, the T/C (endpoint: median survival time, dose: 5.0 mg/kg/injection, schedule: Q01DX009 (ip), vehicle: saline, higher = longer survival) is 97 % of control and 100 % of control and 120 % of control; the T/C (endpoint: median survival time, dose: 5.0 mg/kg/injection, schedule: Q02DX009 (ip), vehicle: saline, higher = longer survival) is 105 % of control.

For the compound `COc1cc(NC(=O)CN(CCCl)CCCl)cc(OC)c1OC`, the T/C under setting [9] was 88 % of control; the T/C (endpoint: median survival time, dose: 100.0 mg/kg/injection, schedule: Q01DX009 (ip), vehicle: saline with Tween-80, higher = longer survival) is 98 % of control; the T/C (endpoint: median survival time, dose: 200.0 mg/kg/injection, schedule: Q01DX009 (ip), vehicle: saline with Tween-80, higher = longer survival) is 94 % of control.

On to `Nc1nc2nc[nH]c2c(=O)[nH]1`, for which the T/C was 73 % of control (endpoint: mean tumor weight, dose: 6.25 mg/kg/injection, schedule: Q01DX010 (ip), vehicle: saline, higher = larger tumour); 71 % of control (endpoint: mean tumor weight, dose: 12.5 mg/kg/injection, schedule: Q01DX010 (ip), vehicle: saline, higher = larger tumour); 96 % of control (endpoint: mean tumor weight, dose: 25.0 mg/kg/injection, schedule: Q01DX010 (ip), vehicle: saline, higher = larger tumour); 71 % of control (endpoint: mean tumor weight, dose: 50.0 mg/kg/injection, schedule: Q01DX010 (ip), vehicle: saline, higher = larger tumour); 82 % of control (endpoint: mean tumor weight, dose: 50.0 mg/kg/injection, schedule: Q01DX011 (ip), vehicle: saline, higher = larger tumour); 80 % of control (endpoint: mean tumor weight, dose: 100.0 mg/kg/injection, schedule: Q01DX011 (ip), vehicle: saline, higher = larger tumour).

Take `COc1ccc2c(c1)CC[C@@H]1[C@@H]2CC[C@@]2(C)[C@H]1CC[C@@]2(O)C(F)=C(F)F`: the T/C (endpoint: median survival time, dose: 12.5 mg/kg/injection, schedule: Q01DX009 (sc), vehicle: steriod suspending solution, higher = longer survival) is 93 % of control.

On to `COc1cc(C=Nc2ccc(-n3ccnc3C)cc2)ccc1N(CCCl)CCCl`, for which the T/C was 116 % of control under setting [5]; 103 % of control (endpoint: median survival time, dose: 5.0 mg/kg/injection, schedule: Q01DX009 (ip), vehicle: Klucel (hydroxypropylcellulose) (HPC), higher = longer survival); 113 % of control under setting [6].

For `O=CN(O)CC(=O)O`, the T/C (endpoint: median survival time, dose: 3000.0 mg/kg/injection, schedule: Q01DX001 (ip), vehicle: saline, higher = longer survival) was 115 % of control.

For `C[C@]12C=CC(=O)C=C1CC[C@@H]1[C@@H]2C(=O)C[C@@]2(C)[C@H]1CC[C@]2(O)C(=O)CO`, the T/C is, setting by setting: (endpoint: mean tumor weight, dose: 6.25 mg/kg/injection, schedule: Q01DX011 (sc), vehicle: steriod suspending solution, higher = larger tumour) 53 % of control; (endpoint: mean tumor weight, dose: 12.5 mg/kg/injection, schedule: Q01DX011 (sc), vehicle: steriod suspending solution, higher = larger tumour) 36 % of control; (endpoint: mean tumor weight, dose: 25.0 mg/kg/injection, schedule: Q01DX011 (sc), vehicle: steriod suspending solution, higher = larger tumour) 22 % of control; (endpoint: mean tumor weight, dose: 50.0 mg/kg/injection, schedule: Q01DX011 (sc), vehicle: steriod suspending solution, higher = larger tumour) 25 % of control; under setting [3], 88 % of control; under setting [9], 102 % of control and 122 % of control. In addition, the T/C is 107 % of control under setting [4] and 70 % of control (endpoint: median tumor weight (est.), dose: 50.0 mg/kg/injection, schedule: Q01DX009 (ip), vehicle: saline with Tween-80, higher = larger tumour).

For the compound `COc1cccc(/C=C/[N+](=O)[O-])c1`, for the setting “endpoint: median survival time, dose: 20.0 mg/kg/injection, schedule: Q01DX009 (ip), vehicle: saline with Tween-80, higher = longer survival”, the T/C is 104 % of control.

Regarding `CC(C)c1ccc(O)c(=O)cc1`, the T/C runs as follows: (endpoint: mean tumor weight, dose: 37.5 mg/kg/injection, schedule: Q01DX011 (ip), vehicle: carboxymethylcellulose (CMC), higher = larger tumour) 52 % of control; (endpoint: mean tumor weight, dose: 75.0 mg/kg/injection, schedule: Q01DX011 (ip), vehicle: carboxymethylcellulose (CMC), higher = larger tumour) 62 % of control.

Turning to `O=S(=O)(c1ccc(NC(=S)N/N=C/c2ccccc2O)cc1)N1CCCCC1`, the T/C (endpoint: median survival time, dose: 12.5 mg/kg/injection, schedule: Q01DX009 (ip), vehicle: olive oil, sesame oil, peanut oil, higher = longer survival) was 98 % of control; the T/C (endpoint: median survival time, dose: 25.0 mg/kg/injection, schedule: Q01DX009 (ip), vehicle: olive oil, sesame oil, peanut oil, higher = longer survival) was 90 % of control; the T/C (endpoint: median survival time, dose: 50.0 mg/kg/injection, schedule: Q01DX009 (ip), vehicle: olive oil, sesame oil, peanut oil, higher = longer survival) is 87 % of control; the T/C (endpoint: median survival time, dose: 200.0 mg/kg/injection, schedule: Q01DX009 (ip), vehicle: olive oil, sesame oil, peanut oil, higher = longer survival) is 91 % of control.
